Article PMC8741514, “Post-translational modifications within tau paired helical filament nucleating motifs perturb microtubule interactions and oligomer formation” (The Journal of Biological Chemistry, 2021)
Entries after “also recorded” stand apart in the source; their conditions may differ. Each block holds one sequence with its values, some of them ahead of it.

System: T2R complex
Assay: STD NMR titration, tau peptide binding to T2R
Set-up: species or system porcine (tubulin isolated from porcine brain)
Conditions: T2R 10 μM; for STD signal / binding to T2R: 1H STD NMR, peptide 2.8 mM, 600 MHz, saturation time 2 s, GPEM buffer pH 6.9; for STD signal / binding to T2R / apparent Kd / affinity for T2R (in words): 10 °C; for apparent Kd / affinity for T2R (in words): STD amplification factor fit, large errors, qualitative
Procedure: Tubulin protein isolated from porcine brain (97 or >99% pure) was purchased from Cytoskeleton, Inc, as a lyophilized powder. Stathmin-like RB3 domain (RB3SLD) binds to heterodimeric tubulin with a 1:2 stoichiometry, forming a longitudinal dimer of tubulin dimers. For ^1H,^15N HSQC NMR experiments, lyophilized tubulin was dissolved into a solution of 48 μM ^15N-labeled K18 (unmodified, modified, or mutant) containing 53 μM RB3 for a final T2R concentration of 50 μM in a buffer containing 25 mM Tris-d11, 25 mM NaCl, 2.5 mM EDTA, 1.5 mM DTT, and 10% heavy water (deuterium oxide [D2O]) at pH 6.7. For ^1H STD NMR experiments, 10 μM T2R was used for samples containing 0.044 to 2.8 mM peptide. Peptide was directly dissolved into buffer or water and added to 10 μM T2R in a buffer containing 25 mM Tris-d11, 25 mM NaCl, 2.5 mM EDTA, 1.5 mM DTT, and 10% D2O at pH 6.7.
STD spectra were recorded at 10 °C on a 600 MHz spectrometer equipped with a cryoprobe by using a series of 40 equally spaced 50 ms Gaussian-shaped pulses, 4096 scans, a saturation time of 2 s, and on/off-resonance frequencies set to −0.5 and 60 ppm, respectively. Samples for ^1H STD NMR were dissolved into GPEM buffer (80 mM PIPES, 2 mM MgCl2, and 0.5 mM EGTA, at pH 6.9). Spectra were processed and analyzed using Topspin 3.1 (Bruker). We quantify the binding of tau peptides to T2R with a series of STD titration experiments ([95]). STD NMR spectra of the ligand with and without T2R were recorded. The concentration of ligand (tau peptide) ranged from 0.04 to 2.8 mM; T2R concentration was maintained at 10 μM. From STD NMR spectra, STD signals were integrated and summed for both STDdiff and STDref over three regions, 8.565 to 7.771, 7.584 to 7.384, and 7.073 to 6.681 ppm. From STDdiff and STDref, STD AFs (STDAF) were calculated according to Equation 1, where [L] is the concentration of peptide (0.04–2.8 mM) and [R] is the concentration of T2R (10 μM). […] STD-AF values (at a fixed saturation time) of a peptide were fitted according to Equation 2, where αSTD represents the maximum STD AF ([72]). For peptide concentration of […] and T2R concentration of 10 μM, we generated STD build-up curves by recording the STD difference signal at increasing saturation times of 0.1 to 4 s. […] (2) STDAF([L])=αSTD∗[L]/Kd+[L] (3) STDAF(t)=STDmax(1−e^(−Ksat∗t)) STD0=STDmax∗Ksat

apparent Kd / affinity for T2R (in words) (peptide 0.044 to 2.8 mM, listed as Y310 phosphorylated peptide): severely reduced peptide binding to T2R | apparent Kd / affinity for T2R (in words) (peptide 0.044 to 2.8 mM, listed as Y310 phosphorylated peptides): precluded a reliable fit
Sequence: NIKHVPGGGSVQIV {phospho-Y} KPVDLSKVTSK [Phos-Y310 296 to 321, Y310 phosphorylated form of the 296 to 321 peptide]
STD signal / binding to T2R (listed as phosphorylation at residue Y310): weaker STD signal; also recorded: Decreases in binding | apparent Kd / affinity for T2R (in words) (peptide 0.044 to 2.8 mM, listed as phosphorylation at Y310): linear binding curve over the accessible range of peptide concentrations, precluding a robust fit to the data, but indicating a more severe reduction in affinity

apparent Kd / affinity for T2R (in words) (peptide 0.044 to 2.8 mM, listed as Succinylation at K311): trend toward lower apparent affinity | apparent Kd increase vs 296 to 321 peptide (STD-AF, peptide 0.044 to 2.8 mM, trend): ca. twofold
Sequence: NIKHVPGGGSVQIVY {succinyl-K} PVDLSKVTSK [Succinyl-K311 296 to 321, K311 succinylated form of the 296 to 321 peptide]
STD signal / binding to T2R (listed as succinylation at residue K311): loss of binding is evident; also recorded: Decreases in binding | apparent Kd / affinity for T2R (in words) (peptide 0.044 to 2.8 mM, listed as Succinylation of K311): trend toward reduced binding, though to a lesser extent

STD signal / binding to T2R (listed as acetylation at K280): further weakened | STD signal / binding to T2R (listed as acetylation at residue K280): Decreases in binding
Sequence: NLKHQPGGGKVQIIN {acetyl-K} KLDLSNVQSK [Acetyl-K280 265 to 290, K280 acetylated form of the 265 to 290 peptide]
apparent Kd / affinity for T2R (in words) (peptide 0.044 to 2.8 mM, listed as K280 acetylation): trend toward reduced binding, though to a lesser extent
